These results are taken from PubChem BioAssay AID179 (DTP/NCI, 2004).

Activity calls are given as the source filed them.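 Rule for the calls: active = compounds giving half or more protection of infected cells from virus-caused growth loss, again on retest; inactive = the rest.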

The subject of the assay is CEM cells HIV-1 protection, formazan growth assay. The experiment in a line: NCI AIDS Antiviral Assay. The settings on record: for IC50: measured here: growth of uninfected CEM cells. In outline:
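CEM (human) cells, HIV-1 infected vs uninfected, 5-point dosing, formazan growth read-out. Retest threshold 50% protection.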

As to `CC(=O)NCCC1CNc2ccccc21` (centres undefined), the EC50 was more than 200 µM and the IC50 is more than 200 µM. `O=P(c1ccccc1)(c1ccccc1)C1CC=C2CCCCCC2C1` (centres undefined): the EC50 was more than 5.37 µM and the IC50 was more than 5.37 µM.

Consider `O=S(=O)(O)Cc1ccc([As](=O)(O)O)cc1`, for which the half-maximal effective concentration (EC50) was more than 200 µM and the IC50 was found to be 129 µM. Taken in the same sequence, the figures for `COc1cccc2c1CCc1c(-c3ccc(F)cc3)cc(-c3ccc4ccccc4n3)nc1-2` were more than 200 µM and more than 200 µM. In the same order, the values of `CC1=C(C(=O)Nc2ccccc2)C(c2ccc3c(c2)OCO3)C(C(=O)Nc2ccccc2)=C(C)N1` are more than 11.2 µM and more than 11.2 µM.

Take `CC12NN=NC1C(=O)NC2=O` (centres undefined): the EC50 is more than 200 µM and the IC50 is more than 200 µM. Regarding `O=C1CC(=O)N(CCc2ccncc2)C(=O)N1CCc1ccncc1`, the outcome was inactive and the IC50 is more than 200 µM. Consider `CC(CCc1nc2ccccc2o1)C1CCC2C3CC[C@@H]4C[C@H](O)CC[C@]4(C)C3CC[C@]12C` (some centres undefined), for which the EC50 is more than 50.1 µM and the IC50 stood at 17.4 µM. Regarding `CC1(C)Oc2ccc(C3=NO[C@@H]4C(=O)N(c5ccc(Cc6ccc(N7C(=O)[C@H]8C(c9ccc%10c(c9)OC(C)(C)O%10)=NO[C@H]8C7=O)cc6)cc5)C(=O)[C@H]34)cc2O1`, the EC50 is more than 91.2 µM and the IC50 is more than 91.2 µM. For `CCOC(=O)CC(O)(c1ccccc1)c1ccccc1`, the EC50 was more than 10 µM and the IC50 was more than 10 µM. Regarding `CCOc1cnn(-c2ccccc2)c(=O)c1Cl`, the EC50 is more than 1000 µM and the IC50 turned out to be 437 µM. On to `Cc1nc2c(C)ccc([N+](=O)[O-])c2c(NCCCN(C)C)c1C`, for which the EC50 is more than 200 µM and the IC50 came to 69.2 µM. In the same order, the values of `COc1ccc2c(c1)nc1n2C(N)=Nc2ccccc2S1` are more than 200 µM and 11.5 µM. For `Nc1ncnc2c1nnn2C1CCC(CP(=O)(O)O)C1` (centres undefined), the EC50 was more than 200 µM and the IC50 is more than 200 µM. The compound `Cc1cc(C)c(C(=O)c2c(C)cccc2C(=O)O)c(C)c1` showed an EC50 of more than 200 µM and a concentration for half-maximal inhibition (IC50) of more than 200 µM. Consider `C=CC(O)C#Cc1cnc(OC)nc1OC` (centres undefined), for which the result was inactive. Consider `O=c1[nH]nc(-c2cccc([N+](=O)[O-])c2)[nH]1`, for which the EC50 is more than 200 µM and the IC50 was 148 µM.

On to `CC1=CC(/C=C(\C)CCCc2ccoc2)C2(OC(=O)C(C)=C2O)[C@H]2C1CC[C@@H]2C` (some centres undefined), for which the result was inactive. Take `Nn1nnc2ccccc21`: the EC50 was more than 200 µM and the IC50 was more than 200 µM. Regarding `NC(N)=NCC[C@H](NC(=O)OCCCCCn1ccc(=O)[nH]c1=O)C(=O)O`, the EC50 is more than 200 µM and the IC50 is more than 200 µM. For `CCN=C(C#N)NCC`, the EC50 was more than 708 µM and the IC50 amounted to 257 µM. `c1ccc(NCn2cnc3ccccc32)cc1`: the outcome was inactive. As to `CN(C)c1ccc2nc3c(cc(Nc4cccc5cccc(Nc6cc7ccccc7c7nc8ccc(N(C)C)cc8[o+]c67)c45)c4ccccc43)[o+]c2c1`, the EC50 is more than 100 µM and the IC50 was found to be 15.1 µM. Taken in the same sequence, the figures for `Cc1c(C#N)c2n(c1C)CCN2` were more than 1550 µM and more than 1550 µM. `CCOc1ccccc1/C=C(/C#N)C(N)=O` displayed an EC50 of more than 200 µM and an IC50 of 117 µM. Taken in the same sequence, the figures for `CC(=O)O[C@@H]1CC[C@]2(C)C3CC[C@]4(C)C(C(C)CCc5nc6ccccc6[nH]5)CCC4C3CC[C@@H]2C1` (some centres undefined) were more than 50.1 µM and 15.5 µM. Taken in the same sequence, the figures for `COc1ccc2[nH]c3c(c2c1)[C@H]1CCC(C(C)(C)C)C[C@H]1[C@H]1C(=O)N(c2ccccc2)C(=O)[C@@H]31` (some centres undefined) were more than 7.94 µM and more than 7.94 µM. In the same order, the values of `O=C1O/C(=C(/Br)c2ccc(Cl)c(Cl)c2)c2ccccc21` are more than 200 µM and 11.7 µM. As for `COC(=O)CN(CC(O)C(NC(C)=O)C(O)C=O)C(=O)OCc1ccccc1` (centres undefined), the EC50 was more than 200 µM and the IC50 was more than 200 µM.

Turning to `NC1N=C(c2ccc(Cl)cc2)C2=C(N1)c1ccccc1CC2` (centres undefined), the EC50 is more than 200 µM and the IC50 was 6.76 µM.

With `CN1CCc2ccccc2C(C(=O)c2ccc3c(c2)OCO3)C1=O` (centres undefined), the EC50 was more than 155 µM and the IC50 is 107 µM. Turning to `c1cncc(CN2CCCC2)c1`, the result was inactive. On to `COc1cc2c(cc1OC)C(C#N)(Cc1ccccc1)N(C(=O)c1ccccc1)C=C2` (centres undefined), for which the outcome was inactive. With `CCC1CN2CCC3(c4ccccc4)CC(C(=O)OC)=CC1C23` (centres undefined), the EC50 is more than 251 µM and the IC50 was 38.9 µM.

With `O=C1CC2CCCC(=O)C23CCC[C@H]13` (some centres undefined), the EC50 is more than 324 µM and the IC50 was more than 324 µM.

`CC(NC(C)(C)C)C(=O)c1cccc(Cl)c1` (centres undefined): the EC50 was more than 200 µM and the IC50 was more than 200 µM. With `CCN(CC)CCCC(C)Nc1cc(-c2ccccc2)nc2cc(Cl)ccc12` (centres undefined), the EC50 is more than 427 µM and the IC50 is 2.45 µM. Taken in the same sequence, the figures for `CC1(C)OC2COC(=O)CC2O1` (centres undefined) were more than 200 µM and more than 200 µM. In the same order, the values of `C1CC[N-]CC1.Oc1ccccc1C=NCCN=Cc1ccccc1O.[Co]` are more than 200 µM and 15.5 µM. On to `CCCCCCCCCCCc1c2oc3ccccc3nc-2cc(Nc2ccccc2O)c1=O`, for which the EC50 is more than 2.95 µM and the IC50 is more than 2.95 µM. As for `Clc1cccc(Cl)c1C=NC12CC3CC(CC(C3)C1)C2`, the EC50 is more than 200 µM and the IC50 was more than 200 µM.

For `O=[N+]([O-])C(/C=C(\Cl)[N+](=O)[O-])=C(Nc1ccccc1)Nc1ccccc1`, the EC50 is more than 200 µM and the IC50 was determined as 6.61 µM. Taken in the same sequence, the figures for `COc1ccc2cc1-c1cc(ccc1O)CC1NCCc3cc4c(cc31)Oc1c(c(OC)c(OC)c3c1[C@H](C2)N(C)CC3)O4` (some centres undefined) were more than 6.03 µM and more than 6.03 µM. Taken in the same sequence, the figures for `[N-]=[N+]=NC1(c2ccccc2)C(=O)c2cccc3c2N(CCC3)C1=O` (centres undefined) were more than 200 µM and 141 µM. In the same order, the values of `O=C(CC(=O)N1N=C(N2CCCCC2)CC1c1ccccc1)Nc1ccccc1` (centres undefined) are more than 200 µM and more than 200 µM. Consider `NC(=O)C1C[C@@H](O)CN1C(=O)c1ccc2c(c1)OCO2` (some centres undefined), for which the EC50 is more than 200 µM and the IC50 is more than 200 µM.

For `COC(=O)N/N=C(/CCC(=O)Nc1ccc(C)c(C)c1)CC(=O)C(C)(C)C`, the EC50 is more than 661 µM and the IC50 is more than 661 µM. On to `N#C/C(=C\c1ccc(O)c(O)c1)C(=O)Nc1ccc(C(=O)O)cc1`, for which the EC50 is more than 200 µM and the IC50 came to 38.9 µM. Taken in the same sequence, the figures for `Oc1ccc(Cl)cc1Cc1ccccc1` were more than 200 µM and 39.8 µM. In the same order, the values of `Cc1cc2c(O)c(c1)CN(Cc1ccccc1)Cc1cc(C)cc(c1O)CN(Cc1ccccc1)Cc1cc(C)cc(c1O)CN(Cc1ccccc1)C2` are more than 50.1 µM and more than 50.1 µM. As for `Cc1ccc(NC(=O)CC(=O)n2nc(C)c(N=Nc3ccccc3Cl)c2C)cc1`, the result was inactive. For `O=C(NC1C=CCC2C(=O)N(c3ccccc3)C(=O)C12)OCc1ccccc1` (centres undefined), the result was inactive. Same read-out and setting: the entry for `COc1cc2cccc(NC(=O)c3cc(OC)c(OC)c(OC)c3Br)c2cc1OC` is “inactive”. For `C=C(C)CCC1C=[N+]([O-])OC(C)(C)C1(C)C` (centres undefined), the EC50 was more than 200 µM and the IC50 is 107 µM.

In the case of `O=[N+]([O-])c1cccc2c(Nc3ccc(S(=O)(=O)Nc4nccs4)cc3)c3ccccc3nc12`, the EC50 is more than 200 µM and the IC50 worked out at 21.9 µM. `Cc1c(CNc2ccc(Cl)c(Cl)c2Cl)cnc2nc(N)nc(N)c12`: the EC50 is more than 2 µM and the IC50 came out at 0.347 µM.

For the compound `CSC(=S)N(C)c1nc(=[N+](C)C)ss1`, the outcome was inactive. Still for that read-out and setting: the entry for `CN1CC[C@@H](c2ccccc2)[C@@H](O)C1` is “inactive”. As for `CC(C)C1=CC2C3C(=O)NC(=O)C3C1C1C3C(=O)NC(=O)C3C21` (centres undefined), the EC50 was more than 794 µM and the IC50 was more than 794 µM. Consider `O=[N+]([O-])c1nccn1CC(O)c1ccc(F)cc1` (centres undefined), for which the EC50 was more than 1000 µM and the IC50 is more than 1000 µM. Consider `O=C(CCN1CCCC1)c1ccc(Oc2ccc(F)cc2)cc1`, for which the EC50 was more than 200 µM and the IC50 is 110 µM. Consider `COc1cc(OC)c2c(O)c3c(c(-c4ccc5cc6c(c(O)c5c4O)C(=O)CC(C)(O)C6)c2c1)CC(C)OC3C` (centres undefined), for which the result was inactive. Regarding `COC1(CC[C@@H](C)COC2OC(CO)C(O)C(O)C2O)O[C@H]2C[C@H]3[C@@H]4CC=C5C[C@@H](OC6OC(CO)C(O)C(OC7OC(CO)C(O)C(O)C7O)C6OC6OC(C)C(O)C(O)C6O)CC[C@]5(C)[C@H]4CC[C@]3(C)[C@H]2[C@@H]1C` (some centres undefined), the EC50 was more than 200 µM and the IC50 is 3.31 µM. Taken in the same sequence, the figures for `CCCCCOCC(=O)OC` were more than 200 µM and 112 µM. In the same order, the values of `CC1(C)Oc2cc3oc(=O)ccc3c3c2C2C1CCC(C)(O3)C2O` (centres undefined) are more than 759 µM and 316 µM.

As for `O=c1[nH]c(Nc2cccc(Cl)c2)nc2nc[nH]c12`, the EC50 was more than 200 µM and the IC50 stood at 151 µM. Taken in the same sequence, the figures for `O=C(Nc1nn[nH]n1)c1nc(-c2ccccc2)cc(=O)[nH]1` were more than 200 µM and more than 200 µM. In the same order, the values of `N#CCCC(CCC#N)(CCC#N)[N+](=O)[O-]` are more than 200 µM and more than 200 µM. Taken in the same sequence, the figures for `CCOC(=O)c1c(N2CCOCC2)[nH]c(=O)c(C(c2cccs2)c2c(O)c(C(=O)OCC)c(N3CCOCC3)[nH]c2=O)c1O` were more than 200 µM and more than 200 µM. With `COC(=O)C1=NOC2C(=O)N(c3ccccc3)C(=O)C12` (centres undefined), the EC50 is more than 200 µM and the half-inhibitory concentration (IC50) is more than 200 µM. Consider `O=C1OC([C@H](O)c2cccnc2)c2ccccc21` (some centres undefined), for which the EC50 was more than 200 µM and the IC50 is more than 200 µM. Regarding `C=C1CN(S(=O)(=O)c2ccc(C)cc2)CCCN(Cc2cccn2C)CCCN(S(=O)(=O)c2ccc(C)cc2)C1`, the EC50 is more than 200 µM and the IC50 worked out at 38.9 µM. Take `O=C1OC(=O)c2cc3c(cc21)C(=O)O/C3=C\c1ccccc1`: the outcome was inactive.
